Converted amounts (≈) assume the structure as drawn.
target: EGFR (UniProt P00533)
Sequence (P00533 whole entry, looked up): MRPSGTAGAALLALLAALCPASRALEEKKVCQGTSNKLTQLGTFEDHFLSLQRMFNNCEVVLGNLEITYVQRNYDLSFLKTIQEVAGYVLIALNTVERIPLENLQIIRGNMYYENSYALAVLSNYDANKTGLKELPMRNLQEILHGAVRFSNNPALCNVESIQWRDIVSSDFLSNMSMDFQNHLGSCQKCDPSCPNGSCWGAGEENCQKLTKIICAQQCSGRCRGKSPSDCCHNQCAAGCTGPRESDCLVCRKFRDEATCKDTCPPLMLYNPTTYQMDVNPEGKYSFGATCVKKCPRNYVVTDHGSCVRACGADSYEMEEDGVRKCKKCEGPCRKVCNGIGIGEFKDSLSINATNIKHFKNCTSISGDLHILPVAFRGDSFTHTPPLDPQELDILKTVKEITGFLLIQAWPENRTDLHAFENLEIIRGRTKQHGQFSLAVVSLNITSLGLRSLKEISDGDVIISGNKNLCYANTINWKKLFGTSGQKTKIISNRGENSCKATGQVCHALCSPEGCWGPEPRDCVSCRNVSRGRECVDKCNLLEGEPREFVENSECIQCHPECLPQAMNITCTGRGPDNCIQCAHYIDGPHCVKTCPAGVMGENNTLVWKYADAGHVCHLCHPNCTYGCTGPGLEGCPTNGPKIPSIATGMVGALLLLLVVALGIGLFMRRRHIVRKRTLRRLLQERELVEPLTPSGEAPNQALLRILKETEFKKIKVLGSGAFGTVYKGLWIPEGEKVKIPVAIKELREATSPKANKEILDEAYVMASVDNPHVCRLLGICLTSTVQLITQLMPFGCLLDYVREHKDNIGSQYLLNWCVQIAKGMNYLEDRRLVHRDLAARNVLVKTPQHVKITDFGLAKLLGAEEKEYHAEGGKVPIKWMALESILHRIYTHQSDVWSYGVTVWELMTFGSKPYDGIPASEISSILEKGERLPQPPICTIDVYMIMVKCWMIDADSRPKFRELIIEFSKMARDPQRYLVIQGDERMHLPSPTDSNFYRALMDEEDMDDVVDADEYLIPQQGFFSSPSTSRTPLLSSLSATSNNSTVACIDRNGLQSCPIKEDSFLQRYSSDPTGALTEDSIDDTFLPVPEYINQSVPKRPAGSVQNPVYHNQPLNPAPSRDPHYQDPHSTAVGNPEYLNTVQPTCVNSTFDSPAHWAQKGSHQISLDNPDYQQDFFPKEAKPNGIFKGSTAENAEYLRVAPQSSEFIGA

`COc1cc(Nc2ncnc(-n3c(NCc4cccc([N+](=O)[O-])c4)nc4ccccc43)n2)cc(OC)c1OC` and `COc1ccc(CNc2nc3ccccc3n2-c2ncnc(Nc3cc(OC)c(OC)c(OC)c3)n2)cc1` cannot be ordered by IC50: greater than 4.5 µg/mL for the first, greater than 4.5 µg/mL for the second.

Compared with `COc1cc(Nc2ncnc(Nc3cccc4ccccc34)n2)cc(OC)c1OCCN1CCOCC1`, `COc1cc(Nc2ncnc(-n3c(=O)[nH]c4ccccc43)n2)cc(OC)c1OCCN1CCOCC1` is higher in IC50: less than 0.4 µg/mL for the first, 2.4 to 3.5 µg/mL (≈ 4.86 to 7.09 µM) for the second.

First: COc1ccc(CNc2nc3ccccc3n2-c2ncnc(Nc3cccc(Cc4nnn[nH]4)c3)n2)cc1
Second: COC(=O)Cc1cccc(Nc2ncnc(-n3c(NCc4ccc(OC)cc4)nc4ccccc43)n2)c1
The IC50 of the first is lower: 0.4 to 2.4 µg/mL (≈ 0.791 to 4.75 µM) for the first, greater than 4.5 µg/mL for the second.

`COc1cc(Nc2ncnc(-c3cccnc3NCc3cccc4ccccc34)n2)cc(OC)c1OC` and `COc1cc(Nc2ncnc(-c3cccnc3Nc3cccc(C(F)(F)F)c3)n2)cc(OC)c1OC` cannot be ordered by IC50: greater than 4.5 µg/mL for the first, greater than 4.5 µg/mL for the second.

`COc1cc(Nc2ncnc(-c3cccnc3Nc3cc(Cl)cc(Cl)c3)n2)cc(OC)c1OC` and `COc1cc(Nc2ncnc(-c3cccnc3NC3CCCCC3)n2)cc(OC)c1OC` cannot be ordered by IC50: greater than 4.5 µg/mL for the first, greater than 4.5 µg/mL for the second.

First: O=c1[nH]c2ccccc2n1-c1ncnc(Nc2cccc(OC(F)(F)F)c2)n1
Second: COc1ccc(Nc2ncnc(-n3c(=O)[nH]c4ccccc43)n2)cc1OC
The IC50 of the first is higher: greater than 4.5 µg/mL for the first, 2.4 to 3.5 µg/mL (≈ 6.59 to 9.61 µM) for the second.

`CN(c1cccc(Cl)c1)c1ncnc(Nc2cccc(CNC(=O)O[C@@H]3CCOC3)c2)n1` and `CCOc1ccc(Nc2ncnc(N(C)c3cccc(Cl)c3)n2)cc1OCC` cannot be ordered by IC50: less than 0.4 µg/mL for the first, less than 0.4 µg/mL for the second.

First: Cc1ccc2c(c1)CCCN2c1ncnc(Nc2ccc3ncsc3c2)n1
Second: COC(=O)c1sccc1Nc1ncnc(N2CCCc3cc(C)ccc32)n1
The IC50 of the first is lower: 0.4 to 2.4 µg/mL (≈ 1.07 to 6.41 µM) for the first, greater than 4.5 µg/mL for the second.

First: COc1cc(Nc2ncnc(Nc3cccc(F)c3)n2)cc(OC)c1OC
Second: COc1cc(Nc2ncnc(Nc3ccc(O)nc3)n2)cc(OC)c1OC
The IC50 of the first is lower: less than 0.4 µg/mL for the first, 0.4 to 2.4 µg/mL (≈ 1.08 to 6.48 µM) for the second.

`COc1cc(Nc2ncnc(-n3ccnc3)n2)cc(OC)c1OC` and `COc1cc(Nc2ncnc(-n3ccc4cccnc43)n2)cc(OC)c1OC` cannot be ordered by IC50: greater than 4.5 µg/mL for the first, greater than 4.5 µg/mL for the second.

First: COc1cc(Nc2ncnc(-n3c(NCc4ccc5c(c4)OCO5)nc4ccccc43)n2)cc(OC)c1OC
Second: COc1cc(Nc2ncnc(-n3c(NCCc4ccccc4)nc4ccccc43)n2)cc(OC)c1OC
The IC50 of the first is higher: greater than 4.5 µg/mL for the first, 0.4 to 2.4 µg/mL (≈ 0.804 to 4.82 µM) for the second.

`COc1cc(Nc2ncnc(N(C)c3ccc(Cl)cc3)n2)cc(OC)c1OC` and `COc1ccc(Nc2ncnc(N(C)c3ccc(Cl)c(Cl)c3)n2)cc1OC` cannot be ordered by IC50: less than 0.4 µg/mL for the first, less than 0.4 µg/mL for the second.

Compared with `Fc1ccc(CNc2ncccc2-c2ncnc(Nc3ccc(N4CCOCC4)cc3)n2)cc1`, `c1coc(-c2cc(Nc3ncnc(Nc4ccc(N5CCOCC5)cc4)n3)[nH]n2)c1` is lower in IC50: greater than 4.5 µg/mL for the first, 2.4 to 3.5 µg/mL (≈ 5.93 to 8.65 µM) for the second.

First: COc1cc(Nc2ncnc(-n3c(Nc4cccc(C(N)=O)c4)nc4ccccc43)n2)cc(OC)c1OC
Second: COc1cc(Nc2ncnc(-n3c(Nc4cccc(F)c4)nc4ccccc43)n2)cc(OC)c1OC
The IC50 of the first is higher: greater than 4.5 µg/mL for the first, 2.4 to 3.5 µg/mL (≈ 4.92 to 7.18 µM) for the second.

`Nc1ncnc(Nc2nc(-c3ccccc3)cs2)n1` and `Nc1nc2ccccc2n1-c1ncnc(Nc2ccccc2)n1` cannot be ordered by IC50: greater than 4.5 µg/mL for the first, greater than 4.5 µg/mL for the second.

`O=c1[nH]c2ccccc2n1-c1ncnc(Nc2cccc3ccccc23)n1` and `N#Cc1ccc(Nc2ncnc(-n3c(=O)[nH]c4ccccc43)n2)cc1` cannot be ordered by IC50: greater than 4.5 µg/mL for the first, greater than 4.5 µg/mL for the second.

Compared with `NC(=O)c1ccccc1Nc1ncnc(-n2c(N)nc3ccccc32)n1`, `COC(=O)c1cccc(Nc2ncnc(-n3c(Cl)nc4ccccc43)n2)c1` is lower in IC50: greater than 4.5 µg/mL for the first, 2.4 to 3.5 µg/mL (≈ 6.3 to 9.19 µM) for the second.

First: COc1ccc(Nc2ncnc(NC[C@@H]3CCCO3)n2)cc1OC
Second: COc1ccc(Nc2ncnc(N(C)C3CCCCC3)n2)cc1OC
The IC50 of the first is higher: greater than 4.5 µg/mL for the first, less than 0.4 µg/mL for the second.

First: COCCOc1cc(Nc2ncnc(Nc3ccc(C)c(O)c3)n2)ccc1OC
Second: COc1ccc(Nc2ncnc(Nc3ccc(F)c(F)c3)n2)cc1OC
The IC50 of the first is lower: less than 0.4 µg/mL for the first, 0.4 to 2.4 µg/mL (≈ 1.11 to 6.68 µM) for the second.

`CC(C)Nc1ncccc1-c1ncnc(Nc2cccc(Cn3ccnn3)c2)n1` and `c1ccc(CNc2nc3ccccc3n2-c2ncnc(Nc3cccc(Cn4ccnn4)c3)n2)nc1` fall in the same range of IC50: 2.4 to 3.5 µg/mL (≈ 6.19 to 9.03 µM) for the first, 2.4 to 3.5 µg/mL (≈ 5.05 to 7.36 µM) for the second.

First: CC(C)(C)OC(=O)NCCCNc1ncnc(-c2ccccc2)n1
Second: CC(C)(C)OC(=O)NCc1cccc(Nc2ncnc(Nc3cc(-c4ccccc4)n[nH]3)n2)c1
The IC50 of the first is higher: greater than 4.5 µg/mL for the first, 2.4 to 3.5 µg/mL (≈ 5.23 to 7.63 µM) for the second.

Compared with `NS(=O)(=O)c1ccc(Nc2ncnc(-n3c(=O)[nH]c4ccccc43)n2)cc1`, `O=c1[nH]c2ccccc2n1-c1ncnc(Nc2cccc(NS(=O)(=O)c3ccc([N+](=O)[O-])cc3)c2)n1` is lower in IC50: greater than 4.5 µg/mL for the first, 0.4 to 2.4 µg/mL (≈ 0.793 to 4.76 µM) for the second.

`CCN(CC)C(=O)C1CCCN(c2ncnc(Nc3cc(OC)c(OC)c(OC)c3)n2)C1` (stereo not given) and `COc1cc(Nc2ncnc(-n3c(NC(C)=O)nc4ccccc43)n2)cc(OC)c1OC` cannot be ordered by IC50: greater than 4.5 µg/mL for the first, greater than 4.5 µg/mL for the second.

`COc1cc(Nc2ncnc(-n3c(NCCc4cccnc4)nc4ccccc43)n2)cc(OC)c1OC` and `COc1cc(Nc2ncnc(-n3c(NCCCc4ccccc4)nc4ccccc43)n2)cc(OC)c1OC` cannot be ordered by IC50: greater than 4.5 µg/mL for the first, greater than 4.5 µg/mL for the second.

First: NC(=O)c1cccc(Nc2ncnc(Nc3cc(-c4ccco4)n[nH]3)n2)c1
Second: COC(=O)c1ccc(-c2cc(Nc3ncnc(Nc4cccc(CC(N)=O)c4)n3)[nH]n2)cc1
The IC50 of the first is lower: less than 0.4 µg/mL for the first, 3.5 to 4.5 µg/mL (≈ 7.87 to 10.1 µM) for the second.

`COc1cc(C)c(Nc2ncnc(-n3c(N)nc4ccccc43)n2)cc1OC` and `COc1cc(Nc2ncnc(-n3c(N)nc4ccccc43)n2)cc(OC)c1` cannot be ordered by IC50: greater than 4.5 µg/mL for the first, greater than 4.5 µg/mL for the second.

`CC(=O)Nc1ccc(Nc2ncnc(-c3cccs3)n2)cc1` and `NC(=O)c1cccc(Nc2ncnc(-c3cccs3)n2)c1` cannot be ordered by IC50: greater than 4.5 µg/mL for the first, greater than 4.5 µg/mL for the second.

First: COc1cc(Nc2ncnc(-n3c(OCc4ccccn4)nc4ccccc43)n2)cc(OC)c1OC
Second: COc1cc(Nc2ncnc(-n3c(Nc4ccccc4C)nc4ccccc43)n2)cc(OC)c1OC
The IC50 of the first is higher: greater than 4.5 µg/mL for the first, 3.5 to 4.5 µg/mL (≈ 7.24 to 9.31 µM) for the second.

`COc1cc(Nc2ncnc(-c3ccnc(NCCCO)c3)n2)cc(OC)c1OC` and `CCN(CC)CCCNc1ccc(-c2ncnc(Nc3cc(OC)c(OC)c(OC)c3)n2)cn1` cannot be ordered by IC50: greater than 4.5 µg/mL for the first, greater than 4.5 µg/mL for the second.

`COc1cc(Nc2ncnc(Nc3nc(C)cs3)n2)cc(OC)c1OC` and `COc1cc(Nc2ncnc(Nc3cc(-c4ccc(C)cc4)n[nH]3)n2)cc(OC)c1OC` fall in the same range of IC50: 0.4 to 2.4 µg/mL (≈ 1.07 to 6.41 µM) for the first, 0.4 to 2.4 µg/mL (≈ 0.923 to 5.54 µM) for the second.

First: Cc1ccc2c(c1)CCCN2c1ncnc(NCCN2CCOCC2)n1
Second: COCCOc1ccc(Nc2ncnc(-n3c(N)nc4ccccc43)n2)cc1OC
The IC50 of the first is higher: greater than 4.5 µg/mL for the first, 3.5 to 4.5 µg/mL (≈ 8.59 to 11 µM) for the second.

Compared with `COc1cc(Nc2ncnc(-c3ccc(NCc4ccccc4)nc3)n2)cc(OC)c1OC`, `COc1cc(Nc2ncnc(Nc3ccc(-c4ccccc4)cc3)n2)cc(OC)c1OC` is lower in IC50: greater than 4.5 µg/mL for the first, 3.5 to 4.5 µg/mL (≈ 8.15 to 10.5 µM) for the second.

First: COc1cc(Nc2ncnc(Nc3[nH]ncc3-c3ccccc3)n2)cc(OC)c1OC
Second: COc1cc(Nc2ncnc(NC(=O)Cc3ccccc3)n2)cc(OC)c1OC
The IC50 of the first is higher: greater than 4.5 µg/mL for the first, 0.4 to 2.4 µg/mL (≈ 1.01 to 6.07 µM) for the second.

First: COc1cc(CNc2ncnc(N(C)c3cccc(Cl)c3)n2)cc(OC)c1OC
Second: COc1cc(Nc2ncnc(-n3c(N(C)C)nc4ccccc43)n2)cc(OC)c1OC
The IC50 of the first is lower: 2.4 to 3.5 µg/mL (≈ 5.77 to 8.42 µM) for the first, greater than 4.5 µg/mL for the second.

`COC(=O)c1ccc(-c2cc(Nc3ncnc(NCc4ccccc4F)n3)[nH]n2)cc1` and `CCOc1cccc(Nc2ncnc(Nc3cc(-c4ccc(C(=O)OC)cc4)n[nH]3)n2)c1` cannot be ordered by IC50: greater than 4.5 µg/mL for the first, greater than 4.5 µg/mL for the second.

First: CCOc1ccc(Nc2ncnc(Nc3ccc(OCc4ccccc4)cc3)n2)cc1OCC
Second: COc1ccc(Nc2ncnc(Nc3cccc(-c4ccnc(C)n4)c3)n2)cc1OC
The IC50 of the first is lower: 0.4 to 2.4 µg/mL (≈ 0.874 to 5.25 µM) for the first, greater than 4.5 µg/mL for the second.

First: COc1cc(Nc2ncnc(-n3c(N[C@@H](CO)c4ccccc4)nc4ccccc43)n2)cc(OC)c1OC
Second: COC(=O)n1c(=O)n(-c2ncnc(Nc3cc(OC)c(OC)c(OC)c3)n2)c2ccccc21
The IC50 of the first is lower: 0.4 to 2.4 µg/mL (≈ 0.779 to 4.67 µM) for the first, greater than 4.5 µg/mL for the second.

`COC(=O)c1ccc(N(C)c2ncnc(Nc3ccc(OC)c(OC)c3)n2)cc1` was tested, and the IC50 was greater than 4.5 µg/mL.

— the Kinase Knowledgebase extract (Sharma et al. 2016)
